From publication PMC9098912, “Molecular basis for inhibiting human glucose transporters by exofacial inhibitors” (Nature Communications, 2022)
Several values for one entry are separate records, joined by “and”; a condition that tells them apart may be missing. Equal entries are not always repeated. Entries after “also recorded” stand apart in the source; their conditions may differ.

Columns and labels:
human GLUT3(N43T) [1] = target: T1, human GLUT3(N43T) (Homo sapiens, UniProt P11169, N43T); settings: 50 mM maltose, cited from earlier work
T1 construct: His10 (N); made in house; host or cells: Sf9 insect cells (baculovirus)
T1 sequence (P11169 1-496 N43T): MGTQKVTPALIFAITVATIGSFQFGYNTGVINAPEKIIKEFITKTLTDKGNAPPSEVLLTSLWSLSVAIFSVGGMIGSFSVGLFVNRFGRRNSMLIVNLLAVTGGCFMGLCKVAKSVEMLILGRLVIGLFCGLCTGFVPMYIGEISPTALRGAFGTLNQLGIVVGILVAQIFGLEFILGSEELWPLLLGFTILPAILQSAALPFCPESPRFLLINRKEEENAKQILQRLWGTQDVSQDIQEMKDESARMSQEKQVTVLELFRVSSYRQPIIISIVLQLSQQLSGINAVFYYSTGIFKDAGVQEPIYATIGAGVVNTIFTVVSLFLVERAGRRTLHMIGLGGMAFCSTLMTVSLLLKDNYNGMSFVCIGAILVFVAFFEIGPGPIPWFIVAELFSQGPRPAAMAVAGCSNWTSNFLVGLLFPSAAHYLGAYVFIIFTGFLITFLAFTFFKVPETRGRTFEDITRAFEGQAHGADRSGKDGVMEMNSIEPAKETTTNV

[2] = target: T2, human glucose transporter GLUT1(N45T) (Homo sapiens, UniProt P11166, N45T); settings: 50 mM maltose, cited from earlier work
T2 construct: made in house
T2 sequence (P11166 1-492 N45T): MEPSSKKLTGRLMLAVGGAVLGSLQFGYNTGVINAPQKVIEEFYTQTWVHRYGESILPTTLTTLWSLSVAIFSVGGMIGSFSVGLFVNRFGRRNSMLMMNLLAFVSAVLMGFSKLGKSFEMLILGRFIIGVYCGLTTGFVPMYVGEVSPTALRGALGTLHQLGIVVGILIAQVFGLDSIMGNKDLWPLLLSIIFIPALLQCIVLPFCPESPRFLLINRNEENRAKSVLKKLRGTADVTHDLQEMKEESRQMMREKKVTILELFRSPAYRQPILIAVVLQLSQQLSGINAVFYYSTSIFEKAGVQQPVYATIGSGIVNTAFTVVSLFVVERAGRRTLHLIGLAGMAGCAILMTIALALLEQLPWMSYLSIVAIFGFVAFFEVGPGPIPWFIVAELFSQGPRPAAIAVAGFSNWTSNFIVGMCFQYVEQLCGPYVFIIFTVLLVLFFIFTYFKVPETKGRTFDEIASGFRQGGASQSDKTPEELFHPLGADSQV

[3] = target: T2, human glucose transporter GLUT1(N45T); assay: Proteoliposome-based counterflow assay, inhibition of D-[2-3H]-glucose transport; assay type: biochemical; settings: 100 μM inhibitor; for Figure S1c: transport activity in presence of inhibitor (value1-3) / Inhibition of glucose uptake: GLUT1; for Figure S1c: transport activity in presence of inhibitor (value1-3): 100 µM
Protocol: (§1) All mutants were generated by standard PCR-based strategy.
(§2) All counterflow assays were performed at 25 °C. […] Liposome without protein was used as negative control.
(§3) All experiments were repeated at least three times.

WT GLUT3 = target: T3, WT GLUT3 (Homo sapiens, UniProt P11169, N43T); assay: Microscale thermophoresis (MST) binding assay; parameters: Figure 1e middle: MST binding curve, Mean / Figure 1e right: MST binding curve, Mean / Figure 2c: MST binding curve, Mean: unit not given here; settings: GLUT3, log [CCB]
T3 construct: His10 (N); made in house; host or cells: Sf9 insect cells (baculovirus)
T3 sequence (P11169 1-496 N43T): T1 sequence (P11169 1-496 N43T)
Protocol: as §1
(§4) Inhibitors with serial dilutions were mixed with indicated protein. […] MST analyses were conducted on a Monolith NT. […] The MST data was analyzed by Monolith NT.115.

[4] = target: T4, GLUT3exo (GLUT3 S64W and I305W) (Homo sapiens, UniProt P11169, I305W/N43T/S64W); assay: biochemical; assay type: binding; settings: GLUT3 dTrp mutant, log [CCB]
T4 construct: His10 (N); made in house; host or cells: Sf9 insect cells (baculovirus)
Protocol: Following the same principle for the engineering of XylE-WW, we introduced two Trp substitutions, S64W and I305W, on the extracellular segments of TM2 and TM8 of GLUT3, respectively. This variant will be referred to as GLUT3exo hereafter (Fig. 1a). The two bulky substituents were expected to trap GLUT3 in an outward-facing conformation.
as §1, §4

human GLUT3(N43T) [5] = target: T1, human GLUT3(N43T); assay: Proteoliposome-based counterflow assay, inhibition of D-[2-3H]-glucose transport; assay type: biochemical; settings: 100 μM inhibitor; for Figure S1d: transport activity in presence of inhibitor (value1-3): three independent experiments, 100 µM
Protocol: as §1, §2, §3

[6] = target: E. coli (strain O157:H7) D-xylose:proton symporter XylE (Escherichia coli O157:H7, UniProt P0AGF5); settings: for Figure S1b: transport activity in presence of inhibitor (value1-3): 100 µM
Protocol: The recombinant human glucose transporter GLUT1(N45T) and E. coli (strain O157:H7) D-xylose:proton symporter XylE were expressed and purified as described previously[17],[26]. […] In brief, the cDNA of human GLUT3 was cloned into a modified pFastBac vector (Invitrogen) fused with an N-terminal His10 tag. All mutants were generated by standard PCR-based strategy.
E. coli polar lipids (Avanti) were dissolved, dried, and resuspended to a final concentration of 20 mg/ml with the KPM 6.5 buffer (50 mM potassium phosphate, 2 mM MgSO4; pH 6.5) supplemented with 50 mM D-glucose or xylose (Sigma). After freeze-and-thaw with liquid nitrogen, the liposomes were extruded through 0.4 μm polycarbonate membranes (Millipore) and incubated with 1% n-octyl-β-d-glucoside (β-OG; Anatrace) at 4 °C for 30 min. Purified protein was incubated with liposomes at a ratio of ~1:100 (w/w) for 60 min. Then β-OG was removed by incubating with Bio-Beads SM2 (Bio-Rad) overnight. The proteoliposomes were subject to freeze-and-thaw again and extruded through 0.4 μm polycarbonate membranes. The homogenized proteoliposomes were ultracentrifuged at 100,000 g at 4 °C for 1 h and rinsed twice with the ice cold KPM 6.5 buffer. Finally, the proteoliposomes were resuspended in the KPM 6.5 buffer to a final concentration of 100 mg/ml (phospholipids).
All counterflow assays were performed at 25 °C. For each assay, an aliquot of 2 μl proteoliposomes was added into 98 μl KPM 6.5 buffer plus 1 μCi D-[2-^3H] glucose (specific radioactivity 23.4 Ci/mmol, PerkinElmer) or D-[^3H] xylose (20 Ci/mmol, American Radiolabeled Chemicals, Inc.). The final concentrations of the external D-[2-^3H] glucose and D-[^3H] xylose were 0.42 μM and 0.5 μM, respectively. Uptake of radio-labeled substrates was terminated at 30 s by rapidly filtering the solution through 0.22 μm GSTF filters (Millipore) and washed with 2.5 ml KPM 6.5 buffer. The filter was solubilized with 0.5 ml Optiphase HISAFE 3 (PerkinElmer) for 30 min for liquid scintillation counting with MicroBeta JET (PerkinElmer). Liposome without protein was used as negative control.
For inhibition assays, an aliquot of 2 μL proteoliposome pre-incubated with 100 μM indicated inhibitors for 0.5 h on ice was added to 98 μL KPM buffer containing 1 μCi D-[2-^3H]-glucose or D-[^3H] xylose with 100 μM inhibitors. To determine the IC50 of the inhibitor, a series of concentrations of the inhibitor was applied as indicated.
All experiments were repeated at least three times. Data for liposome-based counterflow assay were analyzed using GraphPad Prism 6.

T4 sequence (P11169 whole entry N43T/S64W/I305W): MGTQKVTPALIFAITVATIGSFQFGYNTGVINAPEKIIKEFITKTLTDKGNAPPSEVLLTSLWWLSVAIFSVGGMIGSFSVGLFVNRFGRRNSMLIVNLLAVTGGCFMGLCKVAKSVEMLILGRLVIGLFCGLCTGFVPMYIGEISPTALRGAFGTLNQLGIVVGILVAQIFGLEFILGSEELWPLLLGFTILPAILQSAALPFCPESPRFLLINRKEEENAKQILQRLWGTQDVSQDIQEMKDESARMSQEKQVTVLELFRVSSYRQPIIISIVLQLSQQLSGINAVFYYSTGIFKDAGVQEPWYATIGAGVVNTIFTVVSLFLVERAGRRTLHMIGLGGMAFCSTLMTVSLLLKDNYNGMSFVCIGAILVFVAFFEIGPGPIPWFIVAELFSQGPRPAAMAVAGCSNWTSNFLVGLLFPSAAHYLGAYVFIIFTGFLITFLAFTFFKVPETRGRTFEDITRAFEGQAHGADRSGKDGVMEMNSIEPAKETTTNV
Chain of E. coli (strain O157:H7) D-xylose:proton symporter XylE (P0AGF5 whole entry, the tested form may be a part): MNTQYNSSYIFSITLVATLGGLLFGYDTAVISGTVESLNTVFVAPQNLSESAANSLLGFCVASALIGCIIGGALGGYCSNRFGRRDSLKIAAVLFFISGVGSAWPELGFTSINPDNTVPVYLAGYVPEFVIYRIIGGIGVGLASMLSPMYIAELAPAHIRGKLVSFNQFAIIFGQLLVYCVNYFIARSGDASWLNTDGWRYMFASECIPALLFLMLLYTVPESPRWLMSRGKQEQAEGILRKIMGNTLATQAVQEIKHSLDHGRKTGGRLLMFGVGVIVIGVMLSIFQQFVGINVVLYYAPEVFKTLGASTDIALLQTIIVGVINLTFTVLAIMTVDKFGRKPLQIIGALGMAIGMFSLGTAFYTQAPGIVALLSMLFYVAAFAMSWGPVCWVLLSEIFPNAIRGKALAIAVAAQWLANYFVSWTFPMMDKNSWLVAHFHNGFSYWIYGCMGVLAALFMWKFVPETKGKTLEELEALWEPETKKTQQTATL

OC[C@H]1O[C@H](O[C@H]2[C@H](O)[C@@H](O)C(O)O[C@@H]2CO)[C@H](O)[C@@H](O)[C@@H]1O (mixture of isomers) [maltose]
Inhibition of glucose transport (human GLUT3(N43T) [1]; ref 18 (Deng et al., 2015)): could not be completely blocked; also recorded: cannot completely inhibit
Preserved transport activity (human GLUT3(N43T) [1]; ref Deng et al., 2015): one quarter
Inhibition of glucose transport ([2]; ref 18 (Deng et al., 2015)): could not be completely blocked; also recorded: cannot completely inhibit
Preserved transport activity ([2]; ref Deng et al., 2015): one third

C=C1[C@@H](C)[C@H]2[C@H](Cc3ccccc3)NC(=O)[C@]23OC(=O)/C=C/[C@H](O)CCC[C@@H](C)C/C=C/[C@H]3[C@@H]1O [CCB, cytochalasin B]
Figure S1c: transport activity in presence of inhibitor (value1-3) ([3]; three independent experiments): 7.4821 and 5.9756
activity at 100 µM ([3]; read-out: Figure S1c: transport activity in presence of inhibitor (value1-3), GLUT1, three independent experiments): 5.88%
Figure 1e middle: MST binding curve, Mean (WT GLUT3; M -5.20412): 94.2771
Figure 1e middle: MST binding curve, Mean (WT GLUT3; M -5.50515): 91.6933
Figure 1e middle: MST binding curve, Mean (WT GLUT3; M -5.80618): 73.4039
Figure 1e middle: MST binding curve, Mean (WT GLUT3; M -6.10721): 45.8611
Figure 1e middle: MST binding curve, Mean (WT GLUT3; M -6.40824): 32.1651
Figure 1e middle: MST binding curve, Mean (WT GLUT3; M -7.0103): 19.0619
Figure 1e middle: MST binding curve, Mean (WT GLUT3; M -7.31133): 12.7467
Figure 1e middle: MST binding curve, Mean (WT GLUT3; M -7.61236): 11.0147
Figure 1e middle: MST binding curve, Mean (WT GLUT3; M -7.91339): 6.7796
Figure 1e middle: MST binding curve, Mean (WT GLUT3; M -8.51545): 9.6216
Figure 1e middle: MST binding curve, Mean (WT GLUT3; M -8.81648): 7.333
Figure 1e middle: MST binding curve, Mean (WT GLUT3; M -9.11751): 0.514
Figure 1e middle: MST binding curve, Mean ([4]; M -3.69897): 12.3879
Figure 1e middle: MST binding curve, Mean ([4]; M -4): 6.9876
Figure 1e middle: MST binding curve, Mean ([4]; M -4.30103): 10.2535
Figure 1e middle: MST binding curve, Mean ([4]; M -4.60206): 7.6812
Figure 1e middle: MST binding curve, Mean ([4]; M -4.90309): 5.043
Figure 1e middle: MST binding curve, Mean ([4]; M -5.20412): 1.714
Figure 1e middle: MST binding curve, Mean ([4]; M -5.50515): 6.889
Figure 1e middle: MST binding curve, Mean ([4]; M -5.80618): 3.628
Figure 1e middle: MST binding curve, Mean ([4]; M -6.10721): 6.7864
Figure 1e middle: MST binding curve, Mean ([4]; M -6.40824): 7.2964
Figure 1e middle: MST binding curve, Mean ([4]; M -6.70927): 7.035
Figure 1e middle: MST binding curve, Mean ([4]; M -7.0103): 6.292
Figure 1e middle: MST binding curve, Mean ([4]; M -7.31133): 16.166
Figure 1e middle: MST binding curve, Mean ([4]; M -7.61236): 24.9543
Figure 1e middle: MST binding curve, Mean ([4]; M -7.91339): 19.4149
Figure 1e middle: MST binding curve, Mean ([4]; M -8.21442): 19.7489

COC1OC(CO)C(O)C(O)C1OC(=O)c1cc(Cl)c(OCc2nc3ccccc3n2C(C)C)c(Cl)c1 (stereo not shown) [SA2]
Inhibition of glucose uptake [3]: almost completely abolished
Figure S1c: transport activity in presence of inhibitor (value1-3) ([3]; three independent experiments): 23.4003 and 23.4095 and 22.1495
Inhibition of glucose uptake (human GLUT3(N43T) [5]): almost completely abolished
Figure S1d: transport activity in presence of inhibitor (value1-3) (human GLUT3(N43T) [5]): 15.2946 and 13.6199 and 13.8419
Inhibition of xylose transport [6]: moderately inhibited
Figure S1b: transport activity in presence of inhibitor (value1-3) [6]: 58.0461 and 66.7656 and 51.1774

C#CCCC(=O)Nc1cccc(COc2c(Cl)cc(C(=O)OC3C(OC)OC(CO)C(O)C3O)cc2OC)c1 (stereo not shown) [SA3]
Inhibition of glucose uptake [3]: mildly inhibited
Figure S1c: transport activity in presence of inhibitor (value1-3) ([3]; three independent experiments): 52.3152 and 50.1788 and 49.4073
Inhibition of glucose uptake (human GLUT3(N43T) [5]): mildly inhibited
Figure S1d: transport activity in presence of inhibitor (value1-3) (human GLUT3(N43T) [5]): 34.7779 and 38.4924 and 41.7666
Figure S1b: transport activity in presence of inhibitor (value1-3) [6]: 88.5699 and 92.3449 and 87.2521

COc1c(Cl)c(OCc2ccccc2)c(Cl)c(C)c1C(=O)OC1C(OC)OC(CO)C(O)C1O (stereo not shown) [SA4]
Inhibition of glucose uptake [3]: almost completely abolished
Figure S1c: transport activity in presence of inhibitor (value1-3) ([3]; three independent experiments): 12.2388 and 8.7146 and 10.3352
Inhibition of glucose uptake (human GLUT3(N43T) [5]): almost completely abolished
Figure S1d: transport activity in presence of inhibitor (value1-3) (human GLUT3(N43T) [5]): 6.3677 and 8.1365 and 7.922
Figure S1b: transport activity in presence of inhibitor (value1-3) [6]: 106.928 and 95.1823 and 98.9097

CCOC(=O)c1c(C)c(Cl)c(OC(=O)c2c(C)c(Cl)c(O)c(Cl)c2OC)c(Cl)c1OC [SA5]
Figure S1c: transport activity in presence of inhibitor (value1-3) ([3]; three independent experiments): 101.106 and 93.647 and 95.1991
Figure S1d: transport activity in presence of inhibitor (value1-3) (human GLUT3(N43T) [5]): 105.451 and 87.0011 and 100.662
Figure S1b: transport activity in presence of inhibitor (value1-3) [6]: 86.3087 and 90.0117 and 94.9979

COc1ccccc1N1CCN(c2ncnc3c2cnn3-c2cccc(CN)c2)CC1 [SA6]
Inhibition of glucose uptake [3]: almost completely abolished
Figure S1c: transport activity in presence of inhibitor (value1-3) ([3]; three independent experiments): 5.6059 and 7.7469 and 6.8521
Inhibition of glucose uptake (human GLUT3(N43T) [5]): almost completely abolished
Figure S1d: transport activity in presence of inhibitor (value1-3) (human GLUT3(N43T) [5]): 8.1554 and 7.7188 and 4.7344
Figure S1b: transport activity in presence of inhibitor (value1-3) [6]: 95.2845 and 101.756 and 111.538
